Measurements: patent US6737383B1, “Herbicidal oxadiazolidines” (priority 1999, dated 2004)

Legend:
blackgrass [1] = test: Test B pre/postemergence blackgrass; type: in vivo, Alopecurus myosuroides
Summary of the method: (§1)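 Herbicidal effect was estimated by eye on a ten-point control scale after plants spent twelve to sixteen days in a greenhouse following soil or foliar treatment. Foliar sprays targeted plants at one to four leaves; all doses were formulated in a non-phytotoxic solvent with surfactant.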

crabgrass = test: Test B pre/postemergence crabgrass; type: in vivo, Digitaria sanguinalis
Summary of the method: as §1

morningglory = test: Test B pre/postemergence morningglory; type: in vivo, Ipomoea hederacea
Summary of the method: as §1

bamyardgrass = test: Test B flood test barnyardgrass; type: in vivo, Echinochloa crus-galli
Summary of the method: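 Plants were grown to the 2-leaf stage before treatment with test chemical, then held in a greenhouse for twelve to sixteen days. Injury was visually rated against untreated controls on a 0–10 scale, where 0 is no effect and 10 is complete control.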

winter wheat [2] = test: Test E winter wheat; type: in vivo, Triticum aestivum; details: Postemergence
Summary of the method: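 Plants were grown under normal greenhouse practice; for postemergence, in sandy loam soil mixed 60:40 with potting mix, treated at the 1- to 4-leaf stage. The compound was in a non-phytotoxic solvent carrying a surfactant. After roughly 21 to 28 days plants were scored visually against untreated plants.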

blackgrass [3] = test: Test E blackgrass; type: in vivo, Alopecurus myosuroides; details: Preemergence
green foxtail = test: Test E green foxtail; type: in vivo, Setaria viridis; details: Preemergence
Italian ryegrass = test: Test E Italian ryegrass; type: in vivo, Lolium multiflorum; details: Preemergence
winter wheat [4] = test: Test E winter wheat; type: in vivo, Triticum aestivum; details: Preemergence
wild oat = test: Test E wild oat; type: in vivo, Avena fatua; details: Preemergence
winter barley = test: Test E winter barley; type: in vivo, Hordeum vulgare; details: Preemergence
[5] = Preemergence, Rate 62 g/ha, scale of 0 to 10 where 0 is no effect and 10 is complete control
[6] = Preemergence, Rate 250 g/ha, scale of 0 to 10 where 0 is no effect and 10 is complete control
[7] = Preemergence, Rate 500 g/ha, scale of 0 to 10 where 0 is no effect and 10 is complete control
[8] = Rate 62 g/ha, Postemergence, scale 0 to 10, 0 no effect, 10 complete control
[9] = Rate 125 g/ha, Postemergence, scale of 0 to 10 where 0 is no effect and 10 is complete control
[10] = Rate 125 g/ha, Preemergence, scale of 0 to 10 where 0 is no effect and 10 is complete control
[11] = Rate 250 g/ha, Postemergence, scale of 0 to 10 where 0 is no effect and 10 is complete control
[12] = Rate 500 g/ha, Postemergence, scale 0 to 10, 0 no effect, 10 complete control
[13] = Rate 500 g/ha, 0 to 100 scale (0 no effect, 100 complete control)
[14] = Rate 1000 g/ha, 0 to 100 scale, 0 no effect, 100 complete control

CC(C)N(C(=O)n1oc(=O)n(C2CCCC2)c1=O)c1ccc(Cl)cc1 [Compound 282]
4: Blackgrass plant response rating (blackgrass [1]; [6])
0: Blackgrass plant response rating (blackgrass [1]; [5]) | Blackgrass plant response rating (blackgrass [1]; [8]) | Crabgrass plant response rating (crabgrass; [8]) | Crabgrass plant response rating (crabgrass; [9]) | Plant response rating, Crabgrass (crabgrass; [11]) | Crabgrass plant response rating (crabgrass; [12]) | Morningglory plant response rating (morningglory; [5]) | Morningglory plant response rating (morningglory; [6]) | Plant response rating, Morningglory (morningglory; [7]) | Morningglory plant response rating (morningglory; [10])
1: Blackgrass plant response rating (blackgrass [1]; [10]) | Crabgrass plant response rating (crabgrass; [5]) | Crabgrass plant response rating (crabgrass; [10])
6: Crabgrass plant response rating (crabgrass; [6]) | Morningglory plant response rating (morningglory; [8]) | Morningglory plant response rating (morningglory; [9])
50: Plant response rating, Wheat (winter) (winter wheat [2]; Rate 1000 g/ha, 0 to 100 scale where 0 is no effect and 100 is complete control) | Barley (winter) plant response rating (0 to 100 scale) (winter barley; Rate 250 g/ha) | Plant response rating, Barley (winter) (winter barley; [13])
60: Blackgrass plant response rating (0 to 100 scale) (blackgrass [3]; Rate 250 g/ha) | Plant response rating, Blackgrass (blackgrass [3]; [13]) | Wheat (winter) plant response rating (0 to 100 scale) (winter wheat [4]; Rate 250 g/ha) | Plant response rating, Wheat (winter) (winter wheat [4]; [13])
7: Plant response rating, Morningglory (morningglory; [11]) | Barnyardgrass plant response rating (bamyardgrass; Rate 62 g/ha, headed Pre-emergence (flood test species), scale 0 to 10 (0 no effect, 10 complete control)) | Barnyardgrass plant response rating (bamyardgrass; Rate 125 g/ha, Pre-emergence, flood test species, scale 0 to 10 where 0 is no effect and 10 is complete control)
8: Plant response rating, Blackgrass (blackgrass [1]; [7]) | Blackgrass plant response rating (blackgrass [1]; [12]) | Plant response rating, Crabgrass (crabgrass; [7])
20: Wheat (winter) plant response rating (winter wheat [2]; Rate 250 g/ha, 0 to 100 scale where 0 is no effect and 100 is complete control)
30: Plant response rating, Wheat (winter) (winter wheat [2]; Rate 500 g/ha, 0 to 100 scale, 0 is no effect, 100 is complete control)
80: Green foxtail plant response rating (0 to 100 scale) (green foxtail; Rate 250 g/ha) | Plant response rating, Wild oat (wild oat; [14])
70: Plant response rating, Blackgrass (blackgrass [3]; [14]) | I. Ryegrass plant response rating (0 to 100 scale) (Italian ryegrass; Rate 250 g/ha) | Plant response rating, I. Ryegrass (Italian ryegrass; [13]) | Plant response rating, I. Ryegrass (Italian ryegrass; [14]) | Plant response rating, Wheat (winter) (winter wheat [4]; [14]) | Wild oat plant response rating (0 to 100 scale) (wild oat; Rate 250 g/ha) | Plant response rating, Wild oat (wild oat; [13]) | Plant response rating, Barley (winter) (winter barley; [14])
9: Morningglory plant response rating (morningglory; [12]) | Barnyardgrass plant response rating (bamyardgrass; Rate 250 g/ha, Pre-emergence, flood-test species, scale 0 to 10, 0 is no effect, 10 is complete control) | Barnyardgrass plant response rating (bamyardgrass; Rate 500 g/ha, Pre-emergence, flood test species, scale 0 to 10 (0 no effect, 10 complete control))
2: Blackgrass plant response rating (blackgrass [1]; [9])
5: Plant response rating, Blackgrass (blackgrass [1]; [11])
100: Plant response rating, Green foxtail (green foxtail; [13]) | Plant response rating, Green foxtail (green foxtail; [14])
